Drawing on PubChem BioAssay (NCI), this text covers GI50 and TGI for 15 compounds.

Test systems include OVCAR-4 ovarian; NCI-H522 lung; K-562 leukemia; SNB-19 CNS; UACC-62 melanoma; HCT-116 colon; SK-MEL-28 melanoma; NCI-H460 lung; CAKI-1 renal; 786-0 renal.
Assay in all cases: NCI tumour cell line growth inhibition, 48 h

The structures appear in SMILES notation.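 Dose response: 5 concentrations. Exposure: 48 h. Format: 96-well plates. Endpoint: linear interpolation; highest concentration if not reached. Here, GI50 denotes the concentration required for 50% inhibition of growth. At the TGI there is no net growth.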

`O=C(Nc1cccc(Nc2ncc(Br)c(NCCc3cnc[nH]3)n2)c1)N1CCCC1`: the GI50 in the assay with OVCAR-4 ovarian is 3.71 µM; with NCI-H522 lung it was 11.5 µM; in the assay with K-562 leukemia it was 2840 nM; with SNB-19 CNS, 9.02 µM; with UACC-62 melanoma, 6.12 µM; with HCT-116 colon, 1.56 µM. Besides, the GI50 with SK-MEL-28 melanoma is 8.6 µM; in the assay on NCI-H460 lung, 3.68 µM; in the assay with CAKI-1 renal, 7.14 µM; with 786-0 renal, 9.36 µM. For the same compound, the TGI in the assay on OVCAR-4 ovarian was 31.1 µM; in the assay on NCI-H522 lung, 27.6 µM; in the assay with K-562 leukemia, more than 64.9 µM; in the assay on SNB-19 CNS, more than 61.4 µM; in the assay on UACC-62 melanoma, 22.4 µM; in the assay with HCT-116 colon, more than 60 µM. The TGI stood at 28.6 µM in the assay with SK-MEL-28 melanoma, 15 µM in the assay with NCI-H460 lung, 33.2 µM with CAKI-1 renal and 32.6 µM in the assay on 786-0 renal.

Regarding `CN(CC(N)=O)C(=O)N(CCCl)N=O`, the TGI in the assay on OVCAR-4 ovarian, with NCI-H522 lung, in the assay with K-562 leukemia, in the assay with SNB-19 CNS, in the assay with UACC-62 melanoma and in the assay on HCT-116 colon was more than 100 µM each time. Moreover, the TGI in the assay on SK-MEL-28 melanoma, in the assay with NCI-H460 lung, in the assay on CAKI-1 renal and with 786-0 renal was more than 100 µM throughout.

For `COc1ccc(OC)c(Cn2cc3c(c2)-c2oncc2CC3)c1`, the GI50 in the assay with OVCAR-4 ovarian was 5.74 µM; in the assay with NCI-H522 lung, 1.63 µM; in the assay on K-562 leukemia it was 762 nM; with SNB-19 CNS, 4.74 µM; with UACC-62 melanoma, 3.97 µM; with HCT-116 colon, 3.32 µM. The GI50 is 5.09 µM in the assay with SK-MEL-28 melanoma, 3.26 µM with NCI-H460 lung, 2.73 µM in the assay on CAKI-1 renal and 5.49 µM in the assay with 786-0 renal. In addition, the TGI was more than 100 µM with OVCAR-4 ovarian; 4.89 µM in the assay on NCI-H522 lung; more than 57.8 µM in the assay with K-562 leukemia; more than 100 µM in the assay with SNB-19 CNS; more than 100 µM in the assay on UACC-62 melanoma; 39 µM with HCT-116 colon. Also, the TGI in the assay on SK-MEL-28 melanoma is more than 100 µM; with NCI-H460 lung, 17.7 µM; with CAKI-1 renal, more than 100 µM; in the assay on 786-0 renal, more than 63.6 µM.

In the case of `O=C1NC(=O)C(c2cccc(Cl)c2)=C1Nc1ccc(O)c(Cl)c1`, the GI50 in the assay with OVCAR-4 ovarian is 8.98 µM; in the assay with NCI-H522 lung it was 6.98 µM; with K-562 leukemia it was 11700 nM; with SNB-19 CNS it was 15.9 µM; in the assay with UACC-62 melanoma, 7.63 µM; in the assay on HCT-116 colon it was 9.6 µM. The GI50 was 13.7 µM in the assay on SK-MEL-28 melanoma, 8.91 µM in the assay on NCI-H460 lung, 7.72 µM in the assay with CAKI-1 renal and 12.1 µM in the assay with 786-0 renal. Also, the TGI in the assay on OVCAR-4 ovarian is more than 25 µM; with NCI-H522 lung it was more than 21 µM; in the assay with K-562 leukemia it was more than 25 µM; in the assay with SNB-19 CNS, more than 25 µM; in the assay with UACC-62 melanoma it was more than 25 µM; in the assay with HCT-116 colon it was more than 25 µM. The TGI in the assay on SK-MEL-28 melanoma, in the assay on NCI-H460 lung, in the assay on CAKI-1 renal and in the assay with 786-0 renal was more than 25 µM each time.

Consider `CC(C)=CCC/C(C)=C/CC/C(C)=C/CC/C=C(\C)CC/C=C(\C)CCC(=O)Nc1ccn(C2OC(CO)C(O)C2(F)F)c(=O)n1` (configuration not stated), for which the GI50 is 1.91 µM in the assay with OVCAR-4 ovarian; 0.0854 µM in the assay on NCI-H522 lung; 989 nM with K-562 leukemia; 0.0245 µM in the assay with SNB-19 CNS; 0.287 µM with UACC-62 melanoma; 0.0314 µM with HCT-116 colon. Also, the GI50 with SK-MEL-28 melanoma was 2.64 µM; with NCI-H460 lung it was 0.0444 µM; with CAKI-1 renal, 0.042 µM; in the assay on 786-0 renal, less than 0.0157 µM. Moreover, the TGI was found to be 8.67 µM in the assay with OVCAR-4 ovarian; 5.83 µM in the assay with NCI-H522 lung; 24.9 µM with K-562 leukemia; 11.7 µM in the assay on SNB-19 CNS; 15.2 µM in the assay on UACC-62 melanoma; 1.14 µM in the assay on HCT-116 colon. Further, the TGI in the assay with SK-MEL-28 melanoma is 21.9 µM; in the assay with NCI-H460 lung, 3.74 µM; in the assay on CAKI-1 renal it was 9.85 µM; in the assay with 786-0 renal, less than 0.0341 µM.

In the case of `C=C1CCC2[C@@H](CCC3[C@]2(C)CCC[C@]3(C)C(=O)OC)[C@@H]1CC=O` (some centres not stated), the TGI in the assay on OVCAR-4 ovarian is 85.2 µM; in the assay with NCI-H522 lung, more than 100 µM; in the assay with K-562 leukemia, 77.4 µM; in the assay on SNB-19 CNS it was more than 100 µM; with UACC-62 melanoma, 64.5 µM; in the assay on HCT-116 colon, 30.7 µM. Further, the TGI was 91.8 µM in the assay with SK-MEL-28 melanoma, 41.3 µM in the assay with NCI-H460 lung, more than 100 µM in the assay on CAKI-1 renal and more than 100 µM in the assay on 786-0 renal. Besides, the GI50 was more than 100 µM in the assay on NCI-H522 lung, 26000 nM with K-562 leukemia, 47.5 µM in the assay on SNB-19 CNS and 35.8 µM with CAKI-1 renal.

For `COc1ccc(C(Cl)=C(c2ccc(OCCN(C)C)cc2)c2ccc(OCCN(C)C)cc2)cc1`, the TGI with OVCAR-4 ovarian was found to be 5.99 µM; in the assay with NCI-H522 lung, 3.01 µM; with K-562 leukemia, 3.69 µM; in the assay on SNB-19 CNS, 7.43 µM; in the assay with UACC-62 melanoma it was 3.16 µM; in the assay on HCT-116 colon it was 2.68 µM. For the same compound, the TGI with SK-MEL-28 melanoma was 3.11 µM; in the assay on NCI-H460 lung, 3.32 µM; in the assay with CAKI-1 renal, 16.3 µM; with 786-0 renal, 2.53 µM.

Turning to `O=c1[nH]cnc2c(C3NC(CO)C(O)C3O)c[nH]c12` (configuration not stated), the GI50 in the assay on OVCAR-4 ovarian, in the assay with NCI-H522 lung, in the assay on SNB-19 CNS, in the assay on UACC-62 melanoma, with HCT-116 colon and in the assay with SK-MEL-28 melanoma was more than 100 µM each time. The GI50 in the assay on NCI-H460 lung, in the assay with CAKI-1 renal and in the assay on 786-0 renal was more than 100 µM in each case. In addition, the TGI in the assay with OVCAR-4 ovarian, with NCI-H522 lung, in the assay with SNB-19 CNS, with UACC-62 melanoma, in the assay on HCT-116 colon and in the assay on SK-MEL-28 melanoma was more than 100 µM in each case. The TGI in the assay with NCI-H460 lung, in the assay with CAKI-1 renal and with 786-0 renal was more than 100 µM in each case.

Regarding `COc1cc2nc(NCCCCCNC(=O)c3ccco3)nc(N)c2cc1OC`, the TGI is more than 100 µM with OVCAR-4 ovarian; 96.4 µM in the assay with NCI-H522 lung; more than 100 µM with K-562 leukemia; more than 100 µM in the assay on SNB-19 CNS; 52.6 µM in the assay on UACC-62 melanoma; 36.2 µM with SK-MEL-28 melanoma. Besides, the TGI with NCI-H460 lung is more than 100 µM; with CAKI-1 renal it was more than 100 µM; with 786-0 renal it was 49 µM.

Take `CCC1(O)C(=O)OCc2c1cc1n(c2=O)Cc2cc3cc(N)ccc3nc2-1` (configuration not stated): the TGI is more than 22 µM in the assay with OVCAR-4 ovarian; 0.27 µM in the assay with NCI-H522 lung; 31.3 µM in the assay on K-562 leukemia; 3.36 µM in the assay on SNB-19 CNS; 0.251 µM in the assay with UACC-62 melanoma; 41.8 µM with SK-MEL-28 melanoma. Also, the TGI was 0.189 µM with NCI-H460 lung, 0.343 µM in the assay on CAKI-1 renal and 0.0469 µM with 786-0 renal. Further, in the assay on SK-MEL-28 melanoma, the GI50 is 0.493 µM.

For the compound `O=C([CH-]C(=O)c1ccccc1)c1ccccc1.O=C([CH-]C(=O)c1ccccc1)c1ccccc1.[OH-].[OH-].[Ti+4]`, the GI50 with NCI-H522 lung is 24.2 µM; in the assay on K-562 leukemia, 63300 nM; in the assay with SNB-19 CNS, 39.9 µM; in the assay on UACC-62 melanoma it was 66.5 µM; in the assay on HCT-116 colon, 84.3 µM; in the assay with NCI-H460 lung, 60.3 µM. Moreover, the GI50 in the assay on CAKI-1 renal was 85.3 µM; in the assay on 786-0 renal, 47.1 µM. For the same compound, the TGI is 69.7 µM with NCI-H522 lung; more than 100 µM in the assay with K-562 leukemia; more than 100 µM with SNB-19 CNS; more than 100 µM with UACC-62 melanoma; more than 100 µM in the assay with HCT-116 colon; more than 100 µM with NCI-H460 lung. Moreover, the TGI in the assay on CAKI-1 renal and with 786-0 renal was more than 100 µM throughout.

Consider `CCCCCCN(N)C(=O)CC#N`, for which the TGI in the assay on OVCAR-4 ovarian, with NCI-H522 lung, with K-562 leukemia, in the assay on UACC-62 melanoma, with HCT-116 colon and with SK-MEL-28 melanoma was more than 100 µM in each case. Besides, the TGI in the assay with NCI-H460 lung, in the assay on CAKI-1 renal and in the assay with 786-0 renal was more than 100 µM in each case.

For the compound `Fc1cccc(C2SCc3nc4ccccc4n32)c1F` (configuration not stated), the TGI with OVCAR-4 ovarian, in the assay with NCI-H522 lung, in the assay on K-562 leukemia, in the assay on SNB-19 CNS, in the assay on UACC-62 melanoma and with HCT-116 colon was more than 100 µM each time. The TGI with NCI-H460 lung, in the assay on CAKI-1 renal and in the assay with 786-0 renal was more than 100 µM throughout.

As for `Cc1cc2c(c(C(=O)O)c1C)-c1cccc(F)c1C2=O`, the TGI with OVCAR-4 ovarian, in the assay on NCI-H522 lung, in the assay on K-562 leukemia, in the assay on SNB-19 CNS, in the assay on UACC-62 melanoma and with SK-MEL-28 melanoma was more than 100 µM each time. In addition, the TGI in the assay on NCI-H460 lung, in the assay with CAKI-1 renal and in the assay on 786-0 renal was more than 100 µM throughout.

Take `CCCCn1c(=O)c2c(nc3n2CCCN3CCc2ccc(OCC(=O)NCCN(CC)CC)cc2)n(CCCC)c1=O`: the GI50 with OVCAR-4 ovarian was 2.61 µM; with NCI-H522 lung, 7.5 µM; in the assay on K-562 leukemia it was 1310 nM; with SNB-19 CNS, 3.24 µM; in the assay with HCT-116 colon it was 1.63 µM; with SK-MEL-28 melanoma, 0.98 µM. Also, the GI50 in the assay with NCI-H460 lung was 2.2 µM; in the assay on CAKI-1 renal, 2.63 µM; in the assay on 786-0 renal it was 0.912 µM. Moreover, the TGI amounted to 9.76 µM in the assay with OVCAR-4 ovarian; 16.7 µM in the assay on NCI-H522 lung; 4.39 µM in the assay on K-562 leukemia; 11.4 µM in the assay with SNB-19 CNS; 6.42 µM in the assay on HCT-116 colon; 2.04 µM in the assay with SK-MEL-28 melanoma. Moreover, the TGI in the assay with NCI-H460 lung came out at 7.94 µM; in the assay on CAKI-1 renal it was 9.94 µM; with 786-0 renal, 2 µM.
